Reference: patent US6017958A, “Method of treating malignant tumors with thyroxine analogues having no significant hormonal activity” (Octamer, Inc., priority 1997, dated 2000)

What was measured:
[1] = tested on: E-ras 20 cells (E-ras transformed bovine endothelial cells); assay: Tumorigenicity of pretreated E-ras 20 cells in athymic nude mice; assay type: in vivo, bovine cells in nude mice; conditions: 10 μM, 4 days pretreatment; tumor size at day 25
Method: E-ras transformed bovine endothelial cells (Bauer et al., 1996, Intl. J. Oncology 8:239-252) were exposed to 10 μM DIME for […]. The DIME-treated cells (10^5 or 10^6 cells/100 μL) were injected subcutaneously into nude mice and tumor progression followed for 25 days.
Tumorigenicity of E-ras 20 Cells in athymic nude mice was assayed as described previously. Bauer et al., 1996, "Modification of growth related enzymatic pathways and apparent loss of tumorigenicity of a ras-transformed bovine endothelial cell line by treatment with 5-iodo-6-amino-1,2-benzopyrone (INH2 BP)" Intl. J. Oncol. 8:239-252. The in vivo antitumorigenic action of DIME was assayed on athymic mice inoculated with 10^6 MDA-MB-231 cells, as in the tumorgenicity assay. In about 10-14 days when subcutaneous tumors appeared, DIME treatment consisting of p.o. administration of DIME suspension (once a day) was commenced and continued for 28-32 days as reported, Kun et al., 1996, "Induction of tumor apotosis by methyl-3,5-diiodo-4-(4'-methoxyphenoxy) benzoate (DIME)", Abstract No. 102, Int. J. Oncol. 9:supplement 829.
The structural specificity of DIME and its homologs and analogs can be assessed by examining Table 7 and Table 8. We have prepared 17 novel structural analogs of DIME and compared the antitumor activity of 10 of the compounds (Table 8) which appears sufficient to draw some general conclusions. The biological assay chosen was the determination of antitumorigenic action of the drugs on the in vivo tumorigenicity of E-ras cells in nude mice, Bauer et al., 1996, "Modification of growth related enzymatic pathways and apparent loss of tumorigenicity of a ras-transformed bovine endothelial cell line by treatment with 5-iodo-6-amino-1,2-benzopyrone (INH2 BP)" Intl. J. Oncol. 8:239-252. E-ras 20 cells (10^5 or 10^6) were incubated with 10 μM DIME or analogs for 4 days, then 10^5 and 10^6 cells were inoculated subcutaneously into nude mice (5 per test) and rates of tumor formation quantitated by direct tumor volume measurements (cf. 2). […] Identical antitumorigenic tests were performed with nine DIME analogs and taking the effect of DIME as 100% (comparing tumor sizes at day 25) the antitumor efficacy was calculated as percent of DIME activity. […] Results summarized in Table 8 illustrate that substituents in R1 and R2 determine antitumor efficacy.
The efficacy of DIME analogs on in vivo tumorigenicity of Eras 20 cells i
athymic mice was compared to that of DIME (compound 1) which was taken as
100, determining the size of tumor reduction at day 25. Pretreatment with
DIME or its analogs (Table 7) was with 10 μM for 4 days prior to s.c.

[2] = tested on: microtubule protein (MTP); assay: Microtubule protein (MTP) polymerization optical test; assay type: biochemical, bovine or rabbit; conditions: for Percent inhibition of initial velocity of microtubule assembly: 10 μM, 1 mM GTP, 37° C.
Method: Preparation of MTP and an optical test for polymerization was adopted from published methods, Gaskin, et al., 1974, "Turbidimetric studies of the in vitro assembly and disassembly of porcine neurotubules", J. Mol. Biol. 89:737-758; Tiwari, et al., 1993, "A pH and temperature-dependent cycling method that doubles the yield of microtubule protein", Anal. Biochem. 215:96-103. Bovine or rabbit brain was homogenized in an equal volume of ice cold buffer containing 100 mM Pipes/K^+ (pH 7.4), 4 mM EGTA, 1 mM MgCl2, 0.5 mM DTT and 0.1 mM PMSF, and centrifuged at 39,000 g for 1 hour at 4° C. To the supernatant, DMSO (8% final concentration) and GTP (1 mM final concentration) were added, followed by incubation at 37° C. for 30 minutes. Microtubules were pelleted at 100,000 g at 37° C for 30 minutes. The pellets were incubated on ice for 15 minutes, followed by resuspension in ice cold PEM buffer (100 mM Pipes/K+(pH 6.9), 1 mM EGTA, 1 mM MgCl2). This warm polymerization and cold depolymerization cycle was repeated once more and the cold, resuspended monomeric MTP (8-10 mg/ml protein) was used for the optical test for polymerization kinetics. Both rabbit or bovine brain yielded identical MTP preparations.
The composition of the optical test is described in the legends of Figures and Table 12. The polymerization reaction was started by the addition of 100 μl of MTP solution (equivalent to 0.8-1.0 mg protein) and initial linear rates of increase in absorbance at 350 nm followed and recorded at 37° C. (see FIG. 1) in a Perkin-Elmer 552 double beam spectrophotometer, equipped with a thermostatically controlled cuvette holder.
[…] Microtubule assembly at 37° C. was monitored at λ=350 nm and initial velocities were calculated as mA350 /min. […] The values are averages of duplicate assays.

MDA-MB-231 cells = assay: Immunocytochemistry of mitotic spindle and spindle-associated proteins; assay type: cell-based, human; conditions: 100 nM, 18 hrs; data not shown
Method: Cells were fixed in methanol at -20° C. for 5 min. The primary antibody was mouse monoclonal anti-beta tubulin (Amersham) and secondary antibody from goat, conjugated to fluorescein isothiocyanate from Cappel (Durham, N.C., USA). The DNA of nuclei was stained by 10 min of incubation in 0.05 μg/ml 4'-6-diamidono-2-phenylindole (DAPI). Stained cells were viewed with either a Zeiss 40xPlan-Neofluar or a Nikon 60xPlanApo objective. For classification of cells in the mitotic phase, prophase and metaphase were combined into a single category, because it was difficult to distinguish late prophase from metaphase.
In preliminary studies (data not shown) we have also studied the behavior of certain spindle-associated proteins by the immunocytologic technique.

protein phosphatase 2A = assay: Activation of purified protein phosphatase 2A (32P-histone H1 dephosphorylation); assay type: biochemical; conditions: 50 μM
Method: 2.1 Preparation of ^32 P-labeled Histone H1 Substrate
Histone H1 was phosphorylated with protein kinase C (Upstate Biotechnology,Inc., Lake Placid, N.Y.) in a volume of 100 μL according to standard protocols. Alternatively, histone H1 was phosphorylated with p34cdc2 kinase purified from rapidly multiplying Mytilus Edulis embryos at 4-8 stage after isolation with the p^13 -Suc agarose technique (Smythe and Newport, 1992, "Coupling of Mitosis to the Completion of S Phase in Xenopus Occurs via Modulation of the Tyrosine Kinase that Phosphorylates p34cdc2," Cell 68:787-797).
125 ng purified protein phosphatase 2A (Upstate Biotechnology, Inc., Lake Placid, N.Y.; Usui et al., 1983, J. Biol. Chem. 258:10455-10463) was preincubated with thyroxine analogue (50 μM) in buffer (20 mM MOPS or Tris, pH 7.5, 1 mM MgCl2, 60 μM β-mercaptoethanol) for 10 min. at 23° C. Total reaction volume was 20 μL. ^32 P-labeled histone H1 substrate (10 μg, 10^5 cpm) was added and the dephosphorylation reaction allowed to proceed for 5 min. at 23° C., after which time the reaction was quenched by addition of 2 μL Laeimli buffer. An identical reaction containing 125 ng untreated protein phosphatase 2A was run as a control.
Phosphorylated and dephosphorylated histone H1 were separated by gel electrophoresis (12% SDS-PAGE), bands containing phosphorylated histone H1 excised and assayed for ^32 P activity via scintillation counter.
The velocity of dephosphorylation in 5 min. is an indication of the initial velocity (Vinit) of the dephosphorylation reaction.

[3] = tested on: seven human cancer cell lines; assay: Cytocidal action on human cancer cell lines; assay type: cell-based
Method: Seven human cancer cell lines were obtained from the American Tissue Culture Collection (Rockville, Md.) and maintained in the recommended growth media. Cells were seeded into wells (2 cm^2) at a density of 2×10^4 cells/cm^2. Various concentrations of Compounds 1-13 were added to the media at the time of seeding.
The cultures were incubated for 72 hours at 37° C. (5% CO2 atmosphere). Following incubation, cells were detached with trypsin and counted in a hemocytometer.

MDA-MD-231 cells = assay: Inhibition of tumor cell growth; assay type: cell-based, human; conditions: 3 days; for Cells (growth): control 0.95
Method: MDA-MD-231 human cancer cells were obtained from the American Tissue Culture Collection (Rockville, Md.) and maintained in the recommended growth media. Cells were grown in the presence of various concentrations of Compounds 1 and 14 for 3 days at 37° C.

COc1ccc(Oc2c(I)cc(C(N)=O)cc2I)cc1 [Compound 7, 3,5-diiodo-4-(4'-methoxyphenoxy)benzamide]
Efficacy (inhibition of E-ras 20 tumorigenicity, DIME = 100) [1]: 53%
Percent inhibition of initial velocity of microtubule assembly [2]: 43%

C=C1[C@@H](O)[C@@H]2O[C@]3(CC[C@H](/C=C/[C@@H](C)[C@@H]4CC(C)=C[C@@]5(O[C@H](C[C@@](C)(O)C(=O)O)CC[C@H]5O)O4)O3)CC[C@H]2O[C@@H]1[C@@H](O)C[C@H](C)[C@H]1O[C@@]2(CCCCO2)CC[C@H]1C [okadaic acid, reference compound]
cdc-2 kinase- and pp2a-spindle association (MDA-MB-231 cells): abolished only cdc-2 kinase- and pp2a-spindle association

CCCOc1ccc(Oc2c(I)cc(C(=O)OC)cc2I)cc1 [Compound 3, Methyl 3,5-diiodo-4-(4'-n-propoxyphenoxy)benzoate]
activation of protein phosphatase 2A (protein phosphatase 2A): did not activate
Activity/5 min (initial velocity of histone H1 dephosphorylation) (protein phosphatase 2A; 10 min preincubation, control 10217 ± 1708, average of three samples): 7521 ± 1562 cpm
activity in cellular assays and in vivo [3]: completely inactive
Efficacy (inhibition of E-ras 20 tumorigenicity, DIME = 100) [1]: 44%

CCOc1ccc(Oc2c(I)cc(C(=O)OC)cc2I)cc1 [Compound 2, Methyl 3,5-diiodo-4-(4'-ethoxyphenoxy)benzoate]
Emax ([3]; 72 hours, human cancer cells, read-out: maximal cytocidal activity as compared to DIME): 25 to 30%
Efficacy (inhibition of E-ras 20 tumorigenicity, DIME = 100) [1]: 93%
Percent inhibition of initial velocity of microtubule assembly [2]: 76%

CCCCOc1ccc(Oc2c(I)cc(C(=O)OC)cc2I)cc1 [Compound 4, Methyl 3,5-diiodo-4-(4'-n-butoxyphenoxy)benzoate]
Efficacy (inhibition of E-ras 20 tumorigenicity, DIME = 100) [1]: 4%
Percent inhibition of initial velocity of microtubule assembly [2]: 8%

COC(=O)c1cc(I)c(Oc2ccc(O)cc2)c(I)c1 [Compound 10, Methyl 3,5-diiodo-4-(4'-hydroxyphenoxy) benzoate]
Efficacy (inhibition of E-ras 20 tumorigenicity, DIME = 100) [1]: 14%

COC(=O)c1cc(I)c(Oc2ccc(OC(F)(F)F)cc2)c(I)c1 [Compound 18]
Percent inhibition of initial velocity of microtubule assembly [2]: 7%

COc1ccc(Oc2c(I)cc(C(=O)O)cc2I)cc1 [Compound 6, 3,5-diiodo-4-(4'-methoxyphenoxy)benzoic acid]
Efficacy (inhibition of E-ras 20 tumorigenicity, DIME = 100) [1]: 45%
Percent inhibition of initial velocity of microtubule assembly [2]: 0%
inhibitory effect on MTP polymerization ([2]; methyl ester replaced): completely abolishes the inhibitory effect on MTP polymerization

CCOC(=O)c1cc(I)c(Oc2ccc(OC)cc2)c(I)c1 [Compound 5, Ethyl 3,5-diiodo-4-(4'-methoxyphenoxy)benzoate]
activity in cellular assays and in vivo [3]: completely inactive
Efficacy (inhibition of E-ras 20 tumorigenicity, DIME = 100) [1]: 83%
Percent inhibition of initial velocity of microtubule assembly [2]: 35%

COc1ccc(Oc2c(I)cc(C(=O)N(C)C)cc2I)cc1 [Compound 9, 3,5-diiodo-4-(4'-methoxyphenoxy)-N,N-dimethyl benzamide]
Efficacy (inhibition of E-ras 20 tumorigenicity, DIME = 100) [1]: 64%
Percent inhibition of initial velocity of microtubule assembly [2]: 6%

COC(=O)c1cc(I)c(Oc2ccc(OC)cc2Cl)c(I)c1 [Compound 14, Methyl 3,5-diiodo-4-(2'-chloro-4'-methoxyphenoxy)benzoate]
Cells (growth) (MDA-MD-231 cells; 0.5 μM): 0.95 ×10^6
Cells (growth) (MDA-MD-231 cells; 1.0 μM): 0.71 ×10^6
Cells (growth) (MDA-MD-231 cells; 2.0 μM): 0.20 ×10^6
inhibitory activity as compared to DIME (MDA-MD-231 cells): about 25%

CNC(=O)c1cc(I)c(Oc2ccc(OC)cc2)c(I)c1 [Compound 8, 3,5-diiodo-4-(4'-methoxyphenoxy)-N-methyl benzamide]
Efficacy (inhibition of E-ras 20 tumorigenicity, DIME = 100) [1]: 22%
